Reference: patent US11845770B2, “Ascaroside derivatives and methods of use” (California Institute of Technology, priority 2019, dated 2023)

Legend:
[1] = tested on: A549 human alveolar epithelial cells; assay: Stimulation of A549 human lung carcinoma cell line, cytokine expression; type: cell-based; conditions: A549, 10 ng/mL TNFα + 10 ng/mL IL-1β, 48 hours; for percent inhibition relative to Stimulated of IL-8 expression: FIG. 16
Experimental: A549 cells are cultured in DMEM supplemented with 2 mM glutamine and 10% Fetal Bovine Serum (FBS) at 37° C. with 5% (v/v) CO2. Cells are grown to approximately 80% confluency before being passage and media is changed every 2-3 days. A549 cells are seeded in 24-well plates at a density of 0.5×10^6 cells per well at 37° C. with 5% (v/v) CO2. The cells are pre-treated with the compounds (0, 1.0, 10, 100 μM) for 1 hour prior to addition of 10 ng/mL of TNFα and 10 ng/mL of IL-1β for 48 hours at 37° C. with 5% (v/v) CO2. Supernatants were collected and stored at −80° C. until quantitative detection assays are performed.
Human Eotaxin, Monocyte Chemoattractant Protein-1 (MCP-1), Interleukin-6 (IL-6), Interleukin-25 (IL-25), Interleukin-33 (IL-33), Thymic stromal lymphopoietin (TSLP), and Granulocyte-Macrophage Colony-Stimulating Factor (GM-CSF) released from supernatants collected post stimulation were measured using Human Magnetic Luminex® Assay Kit. Human CCL5/RANTES was measured using an Enzyme-Linked Immunosorbent Assay (ELISA)-based analysis.

[2] = Stability in plasma (mouse); type: in vitro ADME; conditions: after 120 minutes, 37° C.
Experimental: The pH of plasma was adjusted to 7.4±0.1 if required. 1 mM intermediate solution was prepared by diluting 10 μL of the 10 mM stock solution of 1 with 90 μL DMSO; 1 mM intermediate of positive control propantheline bromide was prepared by diluting 10 μL of the stock solution with 90 μL ultra-pure water. 100 μM dosing solution was prepared by diluting 10 μL of the 1 mM intermediate solution with 90 μL of 45% MeOH/H2O. 98 μL of blank plasma was spiked with 2 μL of the 100 μM dosing solution to achieve a final concentration of 2 μM of the compound in duplicate. Samples were incubated at 37° C. in a water bath. At each time point (0, 10, 30, 60 and 120 min), 400 μL of stop solution (200 ng/mL tolbutamide plus 200 ng/mL labetalol in 50% ACN/MeOH) was added and was mixed thoroughly to precipitate protein. Sample plates were centrifuged at 4,000 rpm for 10 min. An aliquot of supernatant (100 μL) was transferred from each well and was mixed with 200 μL ultra-pure water. The samples were shaken at 800 rpm for about 10 min before LC/MS/MS analysis.
The remaining percentage of compound 1 (test article) after incubation was calculated according to the following equation.

[3] = Plasma protein binding, HT-Dialysis (rat); type: in vitro ADME; conditions: pH 7.4, dialysis 4 hours, read-out: percent unbound
Experimental: HT-Dialysis plate (Model HTD 96 b, Cat #1006) and the dialysis membrane (molecular weight cut off 12-14 KDa, Cat #1101) can be purchased from HT Dialysis LLC (Gales Ferry, CT).
The plasma was thawed under running cold tap water and centrifuged at 3220×g for 5 min to remove any clots. The pH value was checked and recorded. Only plasma within range of pH 7.0 to pH 8.0 was used. The dialysis membrane was pretreated according to the manufacturer's instructions. Briefly, the dialysis membrane strips were soaked in ultra-pure water at room temperature for approximately 1 hr. After that, each membrane strip that contained 2 membranes was separated and soaked in ethanol:water (20:80 v:v) for approximately 20 min. The membrane was rinsed and soaked for 20 min in ultra-pure water.
Aliquots of 50 μL loading plasma (matrix) containing compound 1 or warfarin in triplicate were transferred to the appropriate wells of a sample collection plate. The samples were matched with dialysis buffer to obtain a final volume of 100 μL with a volume ratio of plasma (matrix):dialysis buffer (1:1, v:v) in each well. […]
The % Unbound, % Bound, % Recovery and % Remaining were calculated using the following equations: % Unbound=100×F/T % Bound=100−% Unbound % Recovery=100×(F+T)/T0 • F=the compound 1 concentration on the receiver side of the membrane/Correction Factor. […]

SMILES	percent inhibition relative to Stimulated of IL-8 expression ([1]; 1.0, 10, 100 μM)	percent inhibition relative to Stimulated of GM-CSF expression ([1]; 1.0, 10, 100 μM, FIG. 16, 17)	percent inhibition relative to Stimulated of IL-25 expression ([1]; 1.0, 10, 100 μM, FIG. 16, 17)	percent inhibition relative to Stimulated of IL-33 expression ([1]; 1.0, 10, 100 μM, FIG. 16, 17)	percent inhibition relative to Stimulated of MCP-1 expression ([1]; 1.0, 10, 100 μM, FIG. 16, 17)	percent inhibition relative to Stimulated of Eotaxin expression ([1]; FIG. 18)	percent inhibition relative to Stimulated of IL-6 expression ([1]; FIG. 18)	percent inhibition relative to Stimulated of RANTES expression ([1]; FIG. 18)	percent inhibition relative to Stimulated of TSLP expression ([1]; FIG. 18)	remaining percentage after incubation [2] [%]	fraction unbound at 4 h [3]
C[C@H](CC/C=C/C(=O)OC(C)(C)C)O[C@@H]1O[C@@H](C)[C@H](O)C[C@H]1O [Compound 1, tert-butyl (2E,6R)-6-{[(2R,3R,5R,6S)-3,5-dihydroxy-6-methyloxan-2-yl]oxy}hept-2-enoate]	dose-dependent inhibition	statistically significant, dose-dependent inhibition	dose-dependent inhibition	statistically significant, dose-dependent inhibition	statistically significant, dose-dependent inhibition	robust, statistically significant inhibition	robust, statistically significant inhibition	robust, statistically significant inhibition	robust, statistically significant inhibition		
C[C@H](CC/C=C/C(=O)O)O[C@@H]1O[C@@H](C)[C@H](O)C[C@H]1O [ascr #7, reference compound]	did not influence	statistically significant but not dose-dependent inhibition	did not influence		statistically significant but not dose-dependent inhibition					103.4	0.946
